# Values quoted from earlier work in patent US20170165286A1, “COMPOSITIONS AND METHODS FOR TREATING DIABETES AND LIVER DISEASES” (Cempra Pharmaceuticals, Inc., priority 2014, published 2017).
# Tests used:
# [1] = reported; cited from earlier work
# [2] = reportedly; cited from earlier work
compound,measurement,setting,value
CC[C@H]1OC(=O)[C@H](C)[C@@H](O[C@H]2C[C@@](C)(OC)[C@@H](O)[C@H](C)O2)[C@H](C)[C@@H](O[C@@H]2O[C@H](C)C[C@H](N(C)C)[C@H]2O)[C@](C)(O)C[C@@H](C)CN(C)[C@H](C)[C@@H](O)[C@]1(C)O [azithromycin],QT effect,[1],QT positive
CC[C@H]1OC(=O)[C@H](C)[C@@H](O[C@H]2C[C@@](C)(OC)[C@@H](O)[C@H](C)O2)[C@H](C)[C@@H](O[C@@H]2O[C@H](C)C[C@H](N(C)C)[C@H]2O)[C@](C)(OC)C[C@@H](C)C(=O)[C@H](C)[C@@H](O)[C@]1(C)O [clarithromycin],Liver toxicity,[2],toxic to the liver
same,QT effect,[1],QT positive
CC[C@H]1OC(=O)[C@H](C)C(=O)[C@H](C)[C@@H](O[C@@H]2O[C@H](C)C[C@H](N(C)C)[C@H]2O)[C@](C)(OC)C[C@@H](C)C(=O)[C@H](C)[C@H]2N(CCCCn3cnc(-c4cccnc4)c3)C(=O)O[C@]12C [telithromycin],QT effect,[1],QT positive
